Tests used:
[1] = Metabolic stability in human liver microsomes assessed as compound remaining at 1 uM after 30 mins LC-MS analysis; type: ADME, Microsome; details: liver microsomes, read-out: Stability
[2] = Metabolic stability in mouse liver microsomes assessed as compound remaining at 1 uM after 30 mins LC-MS analysis; type: ADME, Microsome; details: liver microsomes, read-out: Stability
[3] = test system: A2780; test: cells; details: Homo sapiens, A2780, 72 h
[4] = target: Nicotinamide phosphoribosyltransferase (Homo sapiens, UniProt P43490)
Nicotinamide phosphoribosyltransferase, sequence (P43490 whole entry): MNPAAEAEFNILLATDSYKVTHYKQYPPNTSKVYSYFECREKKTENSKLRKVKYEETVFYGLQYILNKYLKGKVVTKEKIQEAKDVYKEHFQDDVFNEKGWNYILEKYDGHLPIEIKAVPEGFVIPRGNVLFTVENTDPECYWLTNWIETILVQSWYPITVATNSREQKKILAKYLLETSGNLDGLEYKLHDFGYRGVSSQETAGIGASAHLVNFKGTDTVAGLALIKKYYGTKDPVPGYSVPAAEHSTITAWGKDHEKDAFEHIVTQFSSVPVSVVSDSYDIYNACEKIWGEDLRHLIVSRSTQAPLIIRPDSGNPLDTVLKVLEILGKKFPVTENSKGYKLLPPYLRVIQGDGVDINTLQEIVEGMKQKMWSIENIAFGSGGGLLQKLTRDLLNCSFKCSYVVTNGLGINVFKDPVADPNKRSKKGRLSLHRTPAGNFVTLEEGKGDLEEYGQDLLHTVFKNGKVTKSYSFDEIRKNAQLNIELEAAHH

[5] = Intrinsic clearance in human hepatocytes at 1 uM after 10 mins by LC-MS/MS analysis; type: ADME, cell-based, Hepatocyte; details: read-out: CLH
[6] = Intrinsic clearance in CD-1 mouse hepatocytes at 1 uM after 10 mins by LC-MS/MS analysis; type: ADME, cell-based, Hepatocyte; details: read-out: CLH
[7] = in vitro; details: dog, MDCK
[8] = Fraction unbound in mouse plasma at 5 uM after 4 hrs by LC-MS/MS analysis; type: ADME, cell-free
[9] = Fraction unbound in human plasma at 5 uM after 4 hrs by LC-MS/MS analysis; type: ADME, cell-free

| Structure (SMILES) | remaining at 0.5 h, 1 µM [1] | remaining at 0.5 h, 1 µM [2] | IC50 [3] | IC50 [4] | CLint scaled at 1 µM [5] | CLint scaled at 1 µM [6] | Papp A→B at 10 µM [7] | fraction unbound at 4 h, 5 µM [8] | fraction unbound at 4 h, 5 µM [9] |
| --- | --- | --- | --- | --- | --- | --- | --- | --- | --- |
| O=C(NCc1ccc(S(=O)(=O)N2CCCCC2)cc1)c1cc2ccncc2o1 | 56% | 0.14% | 29 nM |  |  |  |  |  |  |
| O=C(Nc1ccc(S(=O)(=O)N2CCCCC2)cc1)c1cc2cnccc2[nH]1 |  |  | > 10000 nM | > 10000 nM |  |  |  |  |  |
| O=C(NCc1ccc(S(=O)(=O)c2ccccc2)cc1)c1ccc2nncn2c1 | 96% | 47% | > 10000 nM | 370 nM |  |  |  |  |  |
| O=C(NCc1ccc(S(=O)(=O)c2ccc(C(F)(F)F)cc2)cc1)c1cc2cnccc2[nH]1 | 82% | 87% | 26 nM | 16 nM |  |  |  |  |  |
| O=C(NCc1ccc(S(=O)(=O)c2cc(F)cc(F)c2)cc1)c1cc2cnccc2[nH]1 | 82% | 63% |  |  | 7 mL/min/kg | 70 mL/min/kg | 12 ×10⁻⁶ cm/s |  |  |
| O=C(NCc1ccc(S(=O)(=O)c2cc(F)cc(F)c2)cc1)c1cnc2nccn2c1 | 78% | 71% | 3 nM |  | 6 mL/min/kg | 74 mL/min/kg | 5 ×10⁻⁶ cm/s | 0.133 | 0.122 |
| O=C(NCc1ccc(S(=O)(=O)N2CCCCC2)cc1)c1ccn2cncc2c1 | 54% | 1% | > 10000 nM | 1700 nM |  |  |  |  |  |
| O=C(NCc1ccc(S(=O)(=O)c2ccccc2)cc1)c1cc2ncccc2s1 | 81% | 1.6% | > 10000 nM | 400 nM |  |  |  |  |  |
| O=C(NCc1ccc(S(=O)(=O)N2CCCCC2)cc1)c1ccc2nccn2c1 | 57% | 0.28% | 6 nM | 28 nM |  |  |  |  |  |
| O=C(NCc1ccc(S(=O)(=O)c2ccccc2)cc1)c1ccc2ncncc2c1 | 24% | 3.7% | > 10000 nM | 1900 nM |  |  |  |  |  |
| O=C(NCc1ccc(S(=O)(=O)c2ccccc2)cc1)c1cnc2nccn2c1 | 60% | 30% | 68 nM |  |  |  |  |  |  |
| CC(NC(=O)c1cc2cnccc2[nH]1)c1ccc(S(=O)(=O)N2CCCCC2)cc1 (stereo not given) | 34% | 0.65% | > 10000 nM | > 10000 nM |  |  |  |  |  |
| O=C(NCc1ccc(S(=O)(=O)c2cccc(F)c2)cc1)c1cc2cnccc2[nH]1 | 79% | 44% | 11 nM | 5 nM |  |  |  |  |  |
| O=C(NCc1ccc(S(=O)(=O)c2ccccc2)cc1)c1nc2ccncc2s1 | 68% | 26% | > 10000 nM | 210 nM |  |  |  |  |  |
| O=C(NCc1ccc(S(=O)(=O)c2ccccc2)cc1)c1cc(-c2cccnc2)[nH]n1 | 67% | 42% | > 10000 nM | 43 nM |  |  |  |  |  |
| O=C(NCc1ccc(S(=O)(=O)c2ccccc2)cc1)c1cc2cnccc2[nH]1 | 75% | 54% |  |  |  |  |  |  |  |
| Cn1c(C(=O)NCc2ccc(S(=O)(=O)c3ccccc3)cc2)cc2cnccc21 | 78% | 34% | > 10000 nM |  |  |  |  |  |  |
| O=C(NCc1ccc(S(=O)(=O)c2ccc(F)c(F)c2)cc1)c1cc2cnccc2[nH]1 | 100% | 58% | 14 nM | 10 nM |  |  |  |  |  |
| O=C(NCc1ccc(S(=O)(=O)c2ccccc2)cc1)c1cc2ccncc2s1 | 48% | 21% | 14 nM | 7 nM |  |  |  |  |  |
| O=C(NCc1ccc(S(=O)(=O)c2cccc(C(F)(F)F)c2)cc1)c1ccc2nccn2c1 | 26% | 17% | 2 nM | 8 nM |  |  |  |  |  |
| O=C(NCc1ccc(S(=O)(=O)c2ccc(N3CCOCC3)nc2)cc1)c1cc2cnccc2[nH]1 | 75% | 72% | 1 nM | 7 nM |  | 57 mL/min/kg | 1 ×10⁻⁶ cm/s | 0.015 | 0.011 |
| O=C(NCc1ccc(S(=O)(=O)N2CCCCC2)cc1)c1cnc2nccn2c1 | 64% | 0.28% | 130 nM | 3 nM |  |  |  |  |  |
| O=C(NCc1ccc(S(=O)(=O)c2cc(F)cc(F)c2)cc1)c1cc2ccncc2o1 | 77% | 12% |  |  |  |  |  |  |  |
| O=C(NCc1ccc(S(=O)(=O)c2cccnc2)cc1)c1cc2cnccc2[nH]1 | 75% | 20% | 48 nM |  |  |  |  |  |  |
| Cc1cccc(S(=O)(=O)c2ccc(CNC(=O)c3cc4cnccc4[nH]3)cc2)c1 | 49% | 32% | 4 nM | 8 nM |  |  |  |  |  |

| Structure (SMILES) | remaining at 0.5 h, 1 µM [1] | remaining at 0.5 h, 1 µM [2] | IC50 [3] | IC50 [4] | CLint scaled at 1 µM [5] | CLint scaled at 1 µM [6] | Papp A→B at 10 µM [7] | fraction unbound at 4 h, 5 µM [8] | fraction unbound at 4 h, 5 µM [9] |
| --- | --- | --- | --- | --- | --- | --- | --- | --- | --- |
| O=C(NCc1ccc(S(=O)(=O)N2CCCCC2)cc1)c1cc2cnccc2[nH]1 | 44% | 1.9% | 10 nM |  |  |  |  |  |  |
| O=C(NCc1ccc(S(=O)(=O)c2ccccc2)cc1)c1cc(-c2cccnc2)no1 | 69% | 66% | > 10000 nM | 41 nM |  |  |  |  |  |
| O=C(NCc1ccc(S(=O)(=O)c2ccc(F)cc2)cc1)c1cc2cnccc2[nH]1 | 91% | 72% | 16 nM | 17 nM |  |  |  |  |  |
| O=C(NCc1ccc(S(=O)(=O)c2ccccc2)cc1)c1cc2ccncc2o1 | 86% | 30% |  |  |  |  |  |  |  |
| O=C(NCc1ccc(S(=O)(=O)c2ccccc2)cc1)c1ccc2ccncc2c1 | 46% | 3.3% | > 10000 nM | 610 nM |  |  |  |  |  |
| O=C(NCc1ccc(S(=O)(=O)c2cccc(C(F)(F)F)c2)cc1)c1cnc2nccn2c1 | 41% | 27% | 2 nM | 1 nM |  |  |  |  |  |
| O=C(NCc1ccc(S(=O)(=O)N2CCCCC2)cc1)c1cc2ccncc2s1 | 4.4% | 0.2% | 6 nM | 11 nM |  |  |  |  |  |
| O=C(NCc1ccc(S(=O)(=O)c2ccccc2)cc1)c1nc2cnccc2[nH]1 | 73% | 7.3% | 5400 nM |  |  |  |  |  |  |
| O=C(NCc1ccc(S(=O)(=O)N2CCCCC2)cc1)c1ccc2nc[nH]c2c1 | 53% | 16% | > 10000 nM | 310 nM |  |  |  |  |  |
| O=C(NCc1ccc(S(=O)(=O)c2ccccc2C(F)(F)F)cc1)c1cc2cnccc2[nH]1 | 52% | 41% | 25 nM | 24 nM |  |  |  |  |  |
| O=C(NCc1ccc(S(=O)(=O)c2ccc(N3CCOCC3)nc2)cc1)c1cc2ccncc2s1 | 23% | 23% | 1 nM | 3 nM |  |  |  |  |  |
| O=C(NCc1ccc(S(=O)(=O)c2ccccc2)cc1)c1ccc2cncn2c1 | 65% | 1.7% | > 10000 nM | 1500 nM |  |  |  |  |  |
| Cc1ccccc1S(=O)(=O)c1ccc(CNC(=O)c2cc3cnccc3[nH]2)cc1 | 48% | 15% | 13 nM | 12 nM |  |  |  |  |  |
| O=C(NCc1ccc(S(=O)(=O)c2ccccc2)cc1)c1c[nH]c2ccncc12 | > 99% | 45% | 2100 nM |  |  |  |  |  |  |
| O=C(NCCc1ccc(S(=O)(=O)c2ccccc2)cc1)c1cc2cnccc2[nH]1 | 64% | 31% | 9100 nM | 970 nM |  |  |  |  |  |
| O=C(NCc1ccc(S(=O)(=O)N2CCCCC2)cc1)c1cc2cnccc2o1 | 46% | 4.6% | 1500 nM | 140 nM |  |  |  |  |  |
| O=C(NCc1ccc(S(=O)(=O)c2cc(F)cc(F)c2)cc1)c1cc2ccncc2s1 | 41% | 32% |  |  | 16 mL/min/kg | 78 mL/min/kg |  | 0.011 | 0.009 |
| O=C(/C=C/c1cccnc1)NCCCCC1CCN(C(=O)c2ccccc2)CC1 [DAPORINAD] | 46.7% | 7.7% |  |  | 15 mL/min/kg | 67 mL/min/kg | 15 ×10⁻⁶ cm/s | 0.033 | 0.007 |
| O=C(NCc1ccc(S(=O)(=O)N2CCCCC2)cc1)c1ccn2ccnc2c1 |  |  | > 10000 nM | 1800 nM |  |  |  |  |  |
| O=C(NCc1ccc(S(=O)(=O)c2ccccc2)cc1)c1ccc2nccn2c1 | 77% | 18% | 13 nM | 18 nM |  |  |  |  |  |
| O=C(NCc1ccc(S(=O)(=O)c2ccccc2)cc1)c1cn2ccnc2cn1 | 87% | 13% | > 10000 nM | 150 nM |  |  |  |  |  |
| O=C(NCc1ccc(S(=O)(=O)c2ccccc2)cc1)c1ccc2cnccc2c1 | 31% | 10% | > 10000 nM | > 10000 nM |  |  |  |  |  |
| N#CN=C(NCCCCCCOc1ccc(Cl)cc1)Nc1ccncc1 [CHS-828] | 61% | 63% |  |  | 7 mL/min/kg | 21 mL/min/kg | 10 ×10⁻⁶ cm/s | 0.005 | 0.005 |
| O=C(NCc1ccc(S(=O)(=O)c2cccc(C(F)(F)F)c2)cc1)c1cc2ccncc2s1 | 43% | 35% | 1 nM |  | 14 mL/min/kg | 73 mL/min/kg | 8 ×10⁻⁶ cm/s | 0.002 | 0.004 |

Reference: ChEMBL document CHEMBL2417368, “Structure-based discovery of novel amide-containing nicotinamide phosphoribosyltransferase (nampt) inhibitors” (J Med Chem, 2013)
